Laboratory results from ChEMBL document CHEMBL5252524, “Therapeutic progress in amyotrophic lateral sclerosis-beginning to learning” (2016).

Key:
Type in all cases: functional
Mus musculus [1] = organism: Mus musculus; experiment: Anti-oxidative activity against ALS mouse model assessed as animal survival relative to control
Mus musculus [2] = organism: Mus musculus; experiment: Anti-inflammatory activity against ALS mouse model harbouring human G93A SOD1 mutant assessed as survival relative to control
Mus musculus [3] = organism: Mus musculus; experiment: Effect on mitochondrial protection in ALS mouse model assessed as survival relative to control
[4] = molecular target: Superoxide dismutase [Cu-Zn] (Homo sapiens) (UniProt P00441); experiment: Effect on human SOD1 protein homeostasis in ALS mouse model assessed as survival relative to control
Superoxide dismutase [Cu-Zn] (Homo sapiens), sequence (P00441 whole entry): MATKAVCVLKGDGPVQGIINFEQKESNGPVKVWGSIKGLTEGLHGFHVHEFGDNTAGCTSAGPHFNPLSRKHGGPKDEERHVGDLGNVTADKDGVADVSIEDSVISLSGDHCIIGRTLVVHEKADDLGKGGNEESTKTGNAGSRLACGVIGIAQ

Mus musculus [5] = organism: Mus musculus; experiment: Anti-oxidative activity against ALS transgenic mouse model harbouring human G93A SOD1 (B6SJL-TgN(SOD1-G93A)1Gur mutant assessed as survival relative to control
Mus musculus [6] = organism: Mus musculus; experiment: Anti-excitotoxic activity against ALS transgenic mouse model harbouring human G93A SOD1 (B6SJL-TgN(SOD1-G93A)1Gur mutant assessed as survival relative to control
Mus musculus [7] = organism: Mus musculus; experiment: Anti-inflammatory activity against ALS transgenic mouse model harbouring human G93A SOD1 (B6SJL-TgN(SOD1-G93A)1Gur mutant assessed as survival relative to control
Mus musculus [8] = organism: Mus musculus; experiment: Anti-inflammatory activity against ALS mouse model assessed as animal survival relative to control
Mus musculus [9] = organism: Mus musculus; experiment: Anti-apoptotic activity against ALS mouse model expressing human G93A SOD1 mutant assessed as survival relative to control
Mus musculus [10] = organism: Mus musculus; experiment: Anti-apoptotic activity against ALS mouse model assessed as animal survival relative to control
Mus musculus [11] = organism: Mus musculus; experiment: Anti-inflammatory activity against ALS B6SJLF1/J mouse model assessed as animal survival relative to control
Mus musculus [12] = organism: Mus musculus; experiment: Anti-excitotoxic activity against ALS mouse model assessed as animal survival relative to control

`C#CCN(C)Cc1ccc(O)c2ncccc12` showed a Survival (Mus musculus [1]) of 6%.
`CN1CCCCC1Cn1cc(C(=O)c2cc([N+](=O)[O-])ccc2I)c2ccccc21` (centres undefined) was tested, and the Survival (Mus musculus [2]) was 10%.
Compound `CN(CC(=O)O)C(=N)N.O` has a Survival (Mus musculus [3]) of 15%.
`O=C([O-])[O-].[Li+].[Li+]` showed a Survival [4] of 36%.
With `[O-][n+]1cccc(/C(Cl)=N/OC[C@H](O)CN2CCCCC2)c1` the Survival [4] was 9%.
`CC(=O)N[C@@H](CS)C(=O)O` [ACETYLCYSTEINE] was tested, and the Survival (Mus musculus [5]) was 7%.
Compound `CO/N=C(\C(=O)N[C@@H]1C(=O)N2C(C(=O)O)=C(CSc3nc(=O)c(O)nn3C)CS[C@H]12)c1csc(N)n1` [CEFTRIAXONE] has a Survival (Mus musculus [6]) of 8%.
In the case of `CC1=C(O)C(=O)C=C2C1=CC=C1[C@@]2(C)CC[C@@]2(C)[C@@H]3C[C@](C)(C(=O)O)CC[C@]3(C)CC[C@]12C` [CELASTROL], the Survival (Mus musculus [7]) is reported as 9%.
For `Cc1ccc(-c2cc(C(F)(F)F)nn2-c2ccc(S(N)(=O)=O)cc2)cc1` [CELECOXIB], the Survival (Mus musculus [8]) was 25%.
For `Nc1cccc2c1CN(C1CCC(=O)NC1=O)C2=O` (centres undefined) [LENALIDOMIDE], the Survival (Mus musculus [7]) was 18%.
`COc1ccc2[nH]cc(CCNC(C)=O)c2c1` [MELATONIN] gave a Survival (Mus musculus [9]) of 7%.
With `CC12CC3CC(C)(C1)CC(N)(C3)C2` [MEMANTINE] the Survival (Mus musculus [6]) was 5%.
`CN(C)c1ccc(O)c2c1C[C@H]1C[C@H]3[C@H](N(C)C)C(O)=C(C(N)=O)C(=O)[C@@]3(O)C(O)=C1C2=O` [MINOCYCLINE] gave a Survival (Mus musculus [10]) of 6%.
Work on `COC1=C(OC)C(=O)C(CCCCCCCCCC[P+](c2ccccc2)(c2ccccc2)c2ccccc2)=C(C)C1=O.CS(=O)(=O)[O-]` [MITOQUINONE MESYLATE] yielded a Survival (Mus musculus [5]) of 4%.
`CC(C)CCC[C@@H](C)[C@H]1CC[C@H]2[C@@H]3CCC4=CC(=NO)CC[C@]4(C)[C@H]3CC[C@]12C` [OLESOXIME] showed a Survival (Mus musculus [3]) of 10%.
`CCc1ccc(CCOc2ccc(CC3SC(=O)NC3=O)cc2)nc1` (centres undefined) [PIOGLITAZONE] was tested, and the Survival (Mus musculus [11]) was 8%.
For `Nc1nc2ccc(OC(F)(F)F)cc2s1` [RILUZOLE], the Survival (Mus musculus [12]) was 10%.
For `O=C([O-])CCCc1ccccc1.[Na+]` [SODIUM PHENYLBUTYRATE], the Survival (Mus musculus [10]) was 22%.
Work on `O=C1CCC(N2C(=O)c3ccccc3C2=O)C(=O)N1` (centres undefined) [THALIDOMIDE] yielded a Survival (Mus musculus [8]) of 12%.
